Measured values: patent US11370798B2 (Vertex Pharmaceuticals Incorporated, priority 2012, dated 2022)

System: HCT116 colorectal cancer cells
Assay: Cisplatin sensitization assay (96 h cell viability MTS);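 also: Test-compound concentration that lowers the Cisplatin IC50 by a set fold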
Format: cell-based
Conditions: compound and Cisplatin added simultaneously, Cisplatin sensitization value
Protocol: Compounds can be screened for their ability to sensitize HCT116 colorectal cancer cells to Cisplatin using a 96 h cell viability (MTS) assay. […] Compounds and Cisplatin are then both added simultaneously to the cell media in 2-fold serial dilutions from a top final concentration of 10 μM as a full matrix of concentrations in a final cell volume of 200 μl, and the cells are then incubated at 37° C. in 5% CO2. After 96 h, 40 μl of MTS reagent (Promega G358a) is added to each well and the cells are incubated for 1 h at 37° C. in 5% CO2.
Compounds with a Cisplatin sensitization value of <0.02 μM are marked with “+++.” Compounds with a Cisplatin sensitization value>0.02 μM but <0.2 μM are marked with “++.” Compounds with a Cisplatin sensitization value>0.2 μM but <5 μM are marked with “+.”

Row | Compound | Cisplatin Sensitization Assay
1 | CN1CCN(C(=O)c2ccc(-c3ccncc3NC(=O)c3c(N)nn4cc(F)cnc34)cc2)CC1 [I-C-25, 2-amino-6-fluoro-N-(4-(4-(4-methylpiperazine-1-carbonyl)phenyl)pyridin-3-yl)pyrazolo[1,5-a]pyrimidine-3-carboxamide] | +++ (Cisplatin sensitization value of <0.02 μM)
2 | Nc1nn2cc(F)cnc2c1C(=O)Nc1cnccc1-c1ccnnc1 [I-C-26, 2-amino-6-fluoro-N-(4-(pyridazin-4-yl)pyridin-3-yl)pyrazolo[1,5-a]pyrimidine-3-carboxamide] | ++ (Cisplatin sensitization value>0.02 μM but <0.2 μM)
3 | COc1ccc(-c2ccncc2NC(=O)c2c(N)nn3cc(F)cnc23)cn1 [I-C-27, 2-amino-6-fluoro-N-(6-methoxy-[3,4′-bipyridin]-3′-yl)pyrazolo[1,5-a]pyrimidine-3-carboxamide] | ++ (Cisplatin sensitization value>0.02 μM but <0.2 μM)
4 | Cc1cnccc1-c1ccncc1NC(=O)c1c(N)nn2cc(F)cnc12 [I-C-29, 2-amino-6-fluoro-N-(3′-methyl-[4,4′-bipyridin]-3-yl)pyrazolo[1,5-a]pyrimidine-3-carboxamide] | +++ (Cisplatin sensitization value of <0.02 μM)
5 | Cc1ccncc1-c1ccncc1NC(=O)c1c(N)nn2cc(F)cnc12 [I-C-30, 2-amino-6-fluoro-N-(4-methyl-[3,4′-bipyridin]-3′-yl)pyrazolo[1,5-a]pyrimidine-3-carboxamide] | +++ (Cisplatin sensitization value of <0.02 μM)
6 | Cc1nnccc1-c1ccncc1NC(=O)c1c(N)nn2cc(F)cnc12 [I-C-31, 2-amino-6-fluoro-N-(4-(3-methylpyridazin-4-yl)pyridin-3-yl)pyrazolo[1,5-a]pyrimidine-3-carboxamide] | +++ (Cisplatin sensitization value of <0.02 μM)
7 | Cc1ccnnc1-c1ccncc1NC(=O)c1c(N)nn2cc(F)cnc12 [I-C-33, 2-amino-6-fluoro-N-(4-(4-methylpyridazin-3-yl)pyridin-3-yl)pyrazolo[1,5-a]pyrimidine-3-carboxamide] | + (Cisplatin sensitization value>0.2 μM but <5 μM)
8 | Cc1nc(F)ccc1-c1ccncc1NC(=O)c1c(N)nn2cc(F)cnc12 [I-C-34, 2-amino-6-fluoro-N-(6-fluoro-2-methyl-[3,4′-bipyridin]-3′-yl)pyrazolo[1,5-a]pyrimidine-3-carboxamide] | +++ (Cisplatin sensitization value of <0.02 μM)
9 | Nc1nn2cc(F)cnc2c1C(=O)Nc1cnccc1-c1cccnc1F [I-C-35, 2-amino-6-fluoro-N-(2-fluoro-[3,4′-bipyridin]-3′-yl)pyrazolo[1,5-a]pyrimidine-3-carboxamide] | +++ (Cisplatin sensitization value of <0.02 μM)
10 | Cc1cccnc1-c1ccncc1NC(=O)c1c(N)nn2cc(F)cnc12 [I-C-36, 2-amino-6-fluoro-N-(3-methyl-[2,4′-bipyridin]-3′-yl)pyrazolo[1,5-a]pyrimidine-3-carboxamide] | +++ (Cisplatin sensitization value of <0.02 μM)
11 | Nc1nn2cc(F)cnc2c1C(=O)Nc1cnccc1-c1cccnc1Cl [I-C-37, 2-amino-N-(2-chloro-[3,4′-bipyridin]-3′-yl)-6-fluoropyrazolo[1,5-a]pyrimidine-3-carboxamide] | +++ (Cisplatin sensitization value of <0.02 μM)
12 | CN1CCC(C(=O)N2CC=C(c3c(F)cncc3NC(=O)c3c(N)nn4cc(F)cnc34)CC2)CC1 [I-C-38, 2-amino-6-fluoro-N-(5-fluoro-1′-(1-methylpiperidine-4-carbonyl)-1′,2′,3′,6′-tetrahydro-[4,4′-bipyridin]-3-yl)pyrazolo[1,5-a]pyrimidine-3-carboxamide] | ++ (Cisplatin sensitization value>0.02 μM but <0.2 μM)
13 | Cc1nc(C(=O)N2CCN(C)CC2)ccc1-c1ccncc1NC(=O)c1c(N)nn2cc(F)cnc12 [I-C-39, 2-amino-6-fluoro-N-(2-methyl-6-(4-methylpiperazine-1-carbonyl)-[3,4′-bipyridin]-3′-yl)pyrazolo[1,5-a]pyrimidine-3-carboxamide] | +++ (Cisplatin sensitization value of <0.02 μM)
14 | Cc1nc(N2CCN(C)CC2)ccc1-c1ccncc1NC(=O)c1c(N)nn2cc(F)cnc12 [I-C-40, 2-amino-6-fluoro-N-(2-methyl-6-(4-methylpiperazin-1-yl)-[3,4′-bipyridin]-3′-yl)pyrazolo[1,5-a]pyrimidine-3-carboxamide] | +++ (Cisplatin sensitization value of <0.02 μM)
15 | Cc1nc(O[C@@H]2CCN(C)C2)ccc1-c1ccncc1NC(=O)c1c(N)nn2cc(F)cnc12 [I-C-41, (R)-2-amino-6-fluoro-N-(2-methyl-6-((1-methylpyrrolidin-3-yl)oxy)-[3,4′-bipyridin]-3′-yl)pyrazolo[1,5-a]pyrimidine-3-carboxamide] | +++ (Cisplatin sensitization value of <0.02 μM)
16 | Nc1nn2cc(F)cnc2c1C(=O)Nc1cnccc1C1CC1 [I-C-42, 2-amino-N-(4-cyclopropylpyridin-3-yl)-6-fluoropyrazolo[1,5-a]pyrimidine-3-carboxamide] | ++ (Cisplatin sensitization value>0.02 μM but <0.2 μM)
17 | CN1CCN(C(=O)c2ccc(-c3c(F)cncc3NC(=O)c3c(N)nn4cc(F)cnc34)cc2)CC1 [I-C-43, 2-amino-6-fluoro-N-(5-fluoro-4-(4-(4-methylpiperazine-1-carbonyl)phenyl)pyridin-3-yl)pyrazolo[1,5-a]pyrimidine-3-carboxamide] | +++ (Cisplatin sensitization value of <0.02 μM)
18 | Nc1nn2cc(F)cnc2c1C(=O)Nc1cnccc1-c1ccc(C(=O)N2CCNCC2)cc1 [I-C-44, 2-amino-6-fluoro-N-(4-(4-(piperazine-1-carbonyl)phenyl)pyridin-3-yl)pyrazolo[1,5-a]pyrimidine-3-carboxamide] | +++ (Cisplatin sensitization value of <0.02 μM)
19 | Cc1cc(C(=O)N2CCN(C)CC2)ccc1-c1ccncc1NC(=O)c1c(N)nn2cc(F)cnc12 [I-C-45, 2-amino-6-fluoro-N-(4-(2-methyl-4-(4-methylpiperazine-1-carbonyl)phenyl)pyridin-3-yl)pyrazolo[1,5-a]pyrimidine-3-carboxamide] | +++ (Cisplatin sensitization value of <0.02 μM)
20 | CN1CCN(C(=O)c2cnc(-c3ccncc3NC(=O)c3c(N)nn4cc(F)cnc34)c(Cl)c2)CC1 [I-C-46, 2-amino-N-(3-chloro-5-(4-methylpiperazine-1-carbonyl)-[2,4′-bipyridin]-3′-yl)-6-fluoropyrazolo[1,5-a]pyrimidine-3-carboxamide] | + (Cisplatin sensitization value>0.2 μM but <5 μM)
21 | Nc1nn2cc(F)cnc2c1C(=O)Nc1cnccc1C1CCN(S(=O)(=O)C2CC2)CC1 [I-C-47, 2-amino-N-(4-(1-(cyclopropylsulfonyl)piperidin-4-yl)pyridin-3-yl)-6-fluoropyrazolo[1,5-a]pyrimidine-3-carboxamide] | +++ (Cisplatin sensitization value of <0.02 μM)
22 | Nc1nn2cc(F)cnc2c1C(=O)Nc1cnccc1-c1ccc(C(=O)N2CCN3CCC2CC3)cc1 [I-C-48, N-(4-(4-(1,4-diazabicyclo[3.2.2]nonane-4-carbonyl)phenyl)pyridin-3-yl)-2-amino-6-fluoropyrazolo[1,5-a]pyrimidine-3-carboxamide] | +++ (Cisplatin sensitization value of <0.02 μM)
23 | Nc1nn2cc(F)cnc2c1C(=O)Nc1cnccc1-c1ccc(C(=O)N2CCN(C3COC3)CC2)cc1 [I-C-49, 2-amino-6-fluoro-N-(4-(4-(4-(oxetan-3-yl)piperazine-1-carbonyl)phenyl)pyridin-3-yl)pyrazolo[1,5-a]pyrimidine-3-carboxamide] | +++ (Cisplatin sensitization value of <0.02 μM)
24 | Nc1nn2cc(F)cnc2c1C(=O)Nc1cnccc1-c1ccc(C(=O)N2CCN3CCC2CC3)cc1F [I-C-50, N-(4-(4-(1,4-diazabicyclo[3.2.2]nonane-4-carbonyl)-2-fluorophenyl)pyridin-3-yl)-2-amino-6-fluoropyrazolo[1,5-a]pyrimidine-3-carboxamide] | +++ (Cisplatin sensitization value of <0.02 μM)
25 | Nc1nn2cc(F)cnc2c1C(=O)Nc1cnccc1-c1ccc(C(=O)N2CCN(C3COC3)CC2)cc1F [I-C-51, 2-amino-6-fluoro-N-(4-(2-fluoro-4-(4-(oxetan-3-yl)piperazine-1-carbonyl)phenyl)pyridin-3-yl)pyrazolo[1,5-a]pyrimidine-3-carboxamide] | ++ (Cisplatin sensitization value>0.02 μM but <0.2 μM)
26 | Nc1nn2cc(F)cnc2c1C(=O)Nc1cnccc1-c1ccc(C(=O)N2CCN(C3COC3)CC2)nc1 [I-C-52, 2-amino-6-fluoro-N-(6-(4-(oxetan-3-yl)piperazine-1-carbonyl)-[3,4′-bipyridin]-3′-yl)pyrazolo[1,5-a]pyrimidine-3-carboxamide] | ++ (Cisplatin sensitization value>0.02 μM but <0.2 μM)
27 | Nc1nn2cc(F)cnc2c1C(=O)Nc1cnccc1-c1ccc(C(=O)N2CCC(N3CCCC3)CC2)nc1 [I-C-53, 2-amino-6-fluoro-N-(6-(4-(pyrrolidin-1-yl)piperidine-1-carbonyl)-[3,4′-bipyridin]-3′-yl)pyrazolo[1,5-a]pyrimidine-3-carboxamide] | +++ (Cisplatin sensitization value of <0.02 μM)
28 | Nc1nn2cc(F)cnc2c1C(=O)Nc1cnccc1-c1ccc(C(=O)N2CCC(N3CCC3)CC2)nc1 [I-C-54, 2-amino-N-(6-(4-(azetidin-1-yl)piperidine-1-carbonyl)-[3,4′-bipyridin]-3′-yl)-6-fluoropyrazolo[1,5-a]pyrimidine-3-carboxamide] | +++ (Cisplatin sensitization value of <0.02 μM)
